Patent publication US20150031045A1, “MARKERS FOR DIAGNOSING AMYOTROPHIC LATERAL SCLEROSIS” (University Of Maryland, priority 2012, published 2015)
Entries after “also recorded” stand apart in the source; their conditions may differ.

Key:
[1] = Body weight of G93A*SOD1 ALS mice treated with 6-gingerol; format: in vivo
Description: (§1) The study used 12 mice. At 35 d, mice were assigned to treatment groups. The 3 groups in the study were: i) wild-type control mice treated with vehicle (CON-Veh; n=4; 3 female (F) and 1 male (M)); ii) G93A*SOD1 ALS mice treated with vehicle (ALS-Veh; n=4; 3 F and 1 M; and iii) G93A*SOD1 mice treated with 6-Gingerol (ALS-Gin; n=4; 3 F and 1 M). There were no 6-gingerol treated control mice due to cost of the drug.
(§2) 6-gingerol was purchased from Carbosynth Limited, UK. Mice were dosed daily with intraperitoneal (ip) injection of vehicle (0.4% ethanol in PBS) or 6-gingerol at a dose of 10 mg/kg. Treatment began when mice were 35 d old and terminated at 115 d. The volume dosed was adjusted weekly according to changes in body weight.
In this study, mice were evaluated at an average age of 115±5 d (for CON-Veh, ALS-Veh and ALS-Gin), just prior to severe symptom onset. […] There was also a significant reduction in muscle mass in ALS vs. CON mice and a 21% improvement in muscle mass with 6-gingerol (CON-Veh: 0.111±0.015 g; ALS-Veh: 0.075±0.010 g; ALS-Gin 0.090±0.007 g) (FIG. 22, left panel, and Table 4).

[2] = tested on: G93A*SOD1 ALS mice; test: Gastrocnemius muscle mass and muscle mass index; format: in vivo
Description: as §1, §2
Specifically, muscle function was assessed using a grip test and a walking or stride test at the termination of the study. After conclusion of the grip function and stride function tests, the mice were then sacrificed and skeletal muscle tissues weighed to determine muscle mass.

[3] = tested on: G93A*SOD1 ALS mice; test: Grip function test; format: in vivo; details: 10 mg/kg ip daily
Description: as §1, §2
Briefly, mice are placed on a metal grid (20 cm wide, 40 cm long; grid placed 40 cm above table) and allowed to grip with fore- and hind-limb paws prior to inverting the grid. Timing begins once the grid is inverted and stops once the mouse can no longer hold the lid.

[4] = tested on: G93A*SOD1 ALS mice; test: Stride length test; format: in vivo; details: 10 mg/kg ip daily; p=0.13
Description: as §1, §2
Briefly, fore- and hind-limb paws are dipped in non-toxic paint and mice walk across a 120 cm table covered in white paper. A dark box with food is placed at the far end to encourage walking across the table. The distance between the fore- and hind-limb ink marks are then measured. Four strides per mouse are quantified and the average stride length determined

[5] = tested on: single muscle fibres from the flexor digitorum brevis (FDB) muscle; test: Intracellular Ca2+ handling (Fura-2) in single muscle fibres from treated mice; format: in vivo
Description: For e-c coupling measurements, fibres were loaded with 1 μM Fura-2 AM in MEM/FBS media for 15 min at room temperature. Fura-2 AM media was then removed by quick centrifugation and fibres were resuspended in fresh MEM/FBS media. Fibres loaded with Fura-2 were placed in a culture/stimulation chamber (Cell MicroControls) containing parallel electrodes on top of a Nikon TiU microscope. Once in the chamber, fibres were continuously perfused with stimulating tyrode (121 mM NaCl, 5 mM KCl, 1.8 mM CaCl2, 0.5 mM MgCl2, 0.4 mM NaH2PO4, 24 mM NaHCO3, and 5.5 mM glucose) pH 7.3 when continuously bubbled with 95% O2/5% CO2 using a Gilson Minipuls 3 peristaltic pump and vacuum pump. Intracellular Ca^2+ levels were assessed by Fura-2 fluorescence ratio (ratio of excitation at 340 and 380 nm; emission at 510 nm) using the IonOptix Hyperswitch system, with the Hyperswitch enabling collection of ratiometric data at a frequency of 250 Hz. Ratios were converted to intracellular free Ca^2+ concentration ([Ca^2+]i). The Fura-2 ratio was calibrated in vivo using the Ca^2+ ionophore A23187 and 10 mM EGTA or 1 mM CaCl2, with Rmin and Rmax determined to be 0.33 and 3.50, respectively. The Kd for Ca^2+ for Fura-2 was 224 nM.
Fura-2 loaded single fibres were stimulated using 350 ms tetani, 0.5 ms pulse duration at 10, 30, 50, 70 and 100, 120 and 150 Hz stimulation frequencies (S48 Square Pulse Stimulator, GRASS Technologies) with one minute rest between frequencies. All single fibre data was collected at room temperature (23 degrees Celsius). […]
After conclusion of the grip function and stride function tests, mice were then sacrificed and single muscle fibres were obtained immediately from the flexor digitorum brevis (FDB) muscle and intracellular Ca^2+ handling assessed using Fura-2 as discussed above in Example 1. Changes in Fura-2 ratio, representing changes in [Ca^2+]i, were measured under resting conditions and in response to electrical stimulation at a range of physiological frequencies (10-150 Hz). […]

[6] = tested on: SERCA1; test: SERCA1 protein level in gastrocnemius muscle by western blot; format: in vivo, mice; details: 10 mg/kg ip daily; levels nearing those in CON muscle; p<0.05 vs. ALS-Veh
Excerpt: (§3) The superficial (SP) and deep (DP) portions of the gastrocnemius muscle (SP GAS and DP GAS, respectively) were used for analysis of Ca^2+ regulatory protein levels by western blot. Anatomically, the gastrocnemius muscle is composed of a lateral and medial head, with a similar mixture of fibres types in the two heads: lateral gastrocnemius is 69% fast glycolytic (FG), 30% fast oxidative and glycolytic (FOG) and 1% slow oxidative (SO) fibres and medial gastrocnemius is 55% FG, 32% FOG and 8% SO. The muscle was divided by superficial vs. deep portions due to their glycolytic (white) vs. oxidative (red) differences, respectively. […] Protein levels were determined using a BCA protein kit (Thermo Scientific). […] For assessment of changes in sarcoplasmic reticulum (SR)/endoplasmic reticulum (ER) Ca^2+ (SERCA) pump, SERCA1 and SERCA2 protein levels were measured. Specifically, 15 μg protein was loaded on 8% gels and analyzed by polyacrylamide gel electrophoresis (PAGE). Levels of parvalbumin (PV) were assessed by loading 2.5 μg protein on 15% gels. […] Level of each respective protein was quantified by chemiluminescence using SuperSignal West Dura Chemiluminescent Substrate (Thermo Scientific) and imaged using a chemiluminescence imaging system (GeneGnome, Syngene). Protein expression levels are expressed as Arbitrary Units (AU). […]

[7] = tested on: SERCA2; test: SERCA2 protein level in skeletal muscle by western blot; format: in vivo, mice; details: 10 mg/kg ip daily
Excerpt: as §3

[8] = tested on: CHOP; test: CHOP protein level in gastrocnemius muscle by western blot; format: in vivo, mice; details: 10 mg/kg ip daily; p<0.05 vs. ALS-Veh
Description: Total protein was determined using a BCA protein assay kit (Thermo Scientific). Samples were then solubilized in loading buffer and denatured (5 min at 100° C.). For assessment of changes in protein expression levels, 15-30 μg total protein were loaded on bis-acrylamide gels and analyzed by polyacrylamide gel electrophoresis (PAGE). The amount of protein loaded for each endpoint was determined by separate analysis of the linear range for each antibody. Samples were then transferred to PVDF membrane (Millipore) and blocked with 5% (w/v) non-fat dry milk powder in Tris-buffered saline (pH 8.0) for 1 hr. […] Secondary antibodies were detected using HRP-linked chemiluminescence with SuperSignal West Dura Chemiluminescence Substrate (Thermo Scientific) and imaged using a chemiluminescence imaging system (GeneGnome, Syngene). The signal for the target protein of each sample was quantified and expressed in arbitrary unit (AU) and then values for each ALS and CON mouse expressed as a ratio relative to the first CON mouse (CON1) at each age. […]
The response of skeletal muscle to the ER stress markers was also assessed in response to gingerol treatment, namely by examining the levels of the apoptotic factor CHOP.

[9] = tested on: PERK; test: PERK protein level in gastrocnemius muscle by western blot; format: in vivo, mice; details: n=5
Description: (§4) As described above in Examples 15-18, ALS mice administered 6-gingerol had improved muscle function, improved intracellular calcium clearance, increased SERCA1 protein levels, and decreased CHOP protein levels. To further examine the response of skeletal muscle to 6-gingerol treatment, the levels of ER stress proteins PERK, GRP78/BiP, PDI, and IRE1α were measured in the gastrocnemius muscle of control (CON) and G93A*SOD1 (ALS) mice treated with vehicle (Veh) or 6-gingerol (Gin). Specifically, the protein levels were measured by western blotting. Each group had five mice, i.e., CON (n=5), ALS-Veh (n=5), and ALS-Gin (n=5).

[10] = tested on: GRP78/BiP; test: GRP78/BiP protein level in gastrocnemius muscle by western blot; format: in vivo, mice; details: n=5
Description: as §4

[11] = tested on: PDI; test: PDI protein level in gastrocnemius muscle by western blot; format: in vivo, mice; details: n=5
Description: as §4

[12] = tested on: IRE1α; test: IRE1α protein level in gastrocnemius muscle by western blot; format: in vivo, mice; details: n=5
Description: as §4

[13] = tested on: SR Ca^2+ ATPase (SERCA); test: Maximum Ca2+ ATPase activity in skeletal muscle homogenates; format: in vivo, mice; details: 10 mg/kg 6-gingerol for 10 weeks, p<0.05 vs. ALS-Veh
Description: To further examine the effects of 6-gingerol treatment, maximum Ca^2+ ATPase activity was measured in control (CON) and G93A*SOD1 (ALS) mice treated with vehicle (Veh) or 6-gingerol (Gingerol). Specifically, ALS mice received 10 mg/kg 6-gingerol for 10 weeks. The vehicle was administered in parallel to the CON-Veh and ALS-Veh groups of mice.
SR Ca^2+ ATPase (SERCA) activity in skeletal muscle homogenates obtained from the mice was then measured and the average data for all groups is shown in FIG. 31, in which CON (n=5), ALS-Veh (n=5), and ALS-Gin (n=5). In FIG. 31, *=p<0.05 vs. CON-Veh and #=p<0.05 vs. ALS-Veh.

## CCCCC[C@H](O)CC(=O)CCc1ccc(O)c(OC)c1 [6-gingerol]
[1]; ALS-Gin vs. ALS-Veh, 10 mg/kg ip daily, 10 mg/kg
  Effect of 6-gingerol on body weight: no significant improvement
[1]; ALS-Gin: G93A*SOD1 mice, 10 mg/kg ip daily from 35 d, evaluated at 115±5 d, CON-Veh 21.0±2.7, ALS-Veh 17.8±1.4
  Body weight: 18.2 ± 0.7 g
[2]; ALS-Gin vs. ALS-Veh
  Muscle mass index (mg muscle per g body weight), reduction in ALS: attenuated
[2]; ALS-Gin vs. ALS-Veh, 10 mg/kg ip daily
  Improvement in muscle mass with 6-gingerol: 21%
[2]; ALS-Gin, 10 mg/kg ip daily 35-115 d, CON-Veh 0.111±0.015, ALS-Veh 0.075±0.010
  Gastrocnemius muscle mass: 0.090 ± 0.007 g
[3]; p<0.10
  Grip test time, difference ALS-Gin vs. ALS-Veh: did not reach significance
[3]; ALS-Gin, ALS-Veh 17% of CON-Veh, p=0.08
  Grip function, % of CON-Veh level: 42%
[4]
  Stride length, difference ALS-Gin vs. ALS-Veh: tendency to improve; also recorded: did not reach statistical significance
[5]; ALS-Gin vs. ALS-Veh
  Effect of 6-gingerol on peak Fura-2 ratio (10 Hz): no attenuation; also recorded: no improvement
[5]; single FDB fibres, after 50 and 100 Hz tetani, p<0.11
  Ca^2+ decay time, ALS-Gin vs. ALS-Veh: tendency for improvement; also recorded: trend for single fibres from ALS-Gin to have a faster decay time
[5]; single FDB fibres, p=0.13
  Resting Fura-2 ratio, ALS-Gin vs. ALS-Veh: lower but did not reach statistical significance; also recorded: tendency for Fura-2 ratio to be lower
[6]
  SERCA1 protein level in gastrocnemius muscle, ALS-Gin compared to ALS-Veh: dramatic increase
[7]
  SERCA2 protein level, rescue of the decrease with 6-gingerol treatment: minimal rescue
[8]
  CHOP protein level in skeletal muscle, ALS-Gin vs. ALS-Veh: significantly attenuated
[9]
  PERK protein level, ALS-Gin compared to ALS-Veh: decreased
[10]
  GRP78/BiP protein level, ALS-Gin compared to ALS-Veh: decreased
[11]
  PDI protein level, ALS-Gin compared to ALS-Veh: decreased
[12]
  IRE1α protein level, ALS-Gin compared to ALS-Veh: decreased
[13]
  Ca^2+ ATPase maximum activity (SERCA activity), ALS-Gin relative to ALS-Veh: increased; also recorded: restored Ca^2+ ATPase maximum activity
